The record followed here is PMC6474809 (Cell chemical biology, 2019).

In data set [1] the target is T1, H. influenzae NfsB (Haemophilus influenzae, UniProt Q57431). Kind of data set: Michaelis-Menten kinetics by NADPH oxidation. The data set is classed as biochemical.
Data set [2] addresses T1, H. influenzae NfsB.
Data set [3] has as its target T1, H. influenzae NfsB. Kind of data set: NAD. It counts as biochemical.
Data set [4] concerns the target T1, H. influenzae NfsB. The data set can be described thus: inhibition of chloramphenicol reduction by purified enzyme, monitored at […] nm. It counts as biochemical.
Data set [5] has as its target T1, H. influenzae NfsB. The data set can be described thus: TLC of flavin released from heat-denatured purified enzyme. The data set is classed as binding.
In data set [6] the target is T1, H. influenzae NfsB. This is another data set of the same source.
For data set [7], the system named is O=C(N[C@H](CO)[C@H](O)c1ccc([N+](=O)[O-])cc1)C(Cl)Cl. Kind of data set: purified protein. The data set is classed as biochemical, Haemophilus influenzae. The conditions noted are these: FMN, NADPH.

T1 sequence (Q57431 whole entry): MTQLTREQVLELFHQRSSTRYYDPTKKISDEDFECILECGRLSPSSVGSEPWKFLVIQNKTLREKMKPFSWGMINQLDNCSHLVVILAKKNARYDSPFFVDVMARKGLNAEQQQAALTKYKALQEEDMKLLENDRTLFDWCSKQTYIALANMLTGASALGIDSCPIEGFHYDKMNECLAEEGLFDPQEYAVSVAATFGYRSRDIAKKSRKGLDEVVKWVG

For `O=[N+]([O-])c1cccc(O)c1` [3-nitrophenol], the “Michaelis-Menten kinetics by NADPH oxidation (kcat/KM)” value at H. influenzae NfsB [1] stood at 61800 M⁻¹ s⁻¹.
Take `O=[N+]([O-])c1ccc(O)cc1` [4-nitrophenol]: the “enzyme turnover monitored at 450 nm; kcat/KM not determined” value on H. influenzae NfsB [2] is “All three of these compounds also acted as substrates, with menadione showing relatively high activity and 4-nitrophenol showing relatively low”.
In the case of `NC(=O)C1=CN([C@@H]2O[C@H](COP(=O)(O)OP(=O)(O)OC[C@H]3O[C@@H](n4cnc5c(N)ncnc54)[C@H](OP(=O)(O)O)[C@@H]3O)[C@@H](O)[C@H]2O)C=CC1` [NADPH], the “NAD(P)H oxidation at 340 nm with purified enzyme” value on H. influenzae NfsB [3] is “requires NADPH as a cofactor and does not utilize NADH”.
Usually IC50 stands for the concentration at which inhibition is half-maximal. With `O=c1oc2ccccc2c(O)c1Cc1c(O)c2ccccc2oc1=O` [dicoumarol], on H. influenzae NfsB [4], the IC50 was 120 µM.
For `Cc1cc2nc3c(=O)[nH]c(=O)nc-3n(C[C@H](O)[C@H](O)[C@H](O)COP(=O)(O)O)c2cc1C` [flavin mononucleotide], the “TLC of flavin released from heat-denatured purified enzyme” value on H. influenzae NfsB [5] is given as “tightly binds a flavin cofactor, most likely flavin mononucleotide (FMN)”.
For `CC1=CC(=O)c2ccccc2C1=O` [menadione], the “Michaelis-Menten kinetics by NADPH oxidation (kcat/KM)” value at H. influenzae NfsB [1] worked out at 79340 M⁻¹ s⁻¹.
On to `O=C1CN(/N=C/c2ccc([N+](=O)[O-])o2)C(=O)N1` [nitrofurantoin], for which the “Michaelis-Menten kinetics at 420 nm (kcat/KM)” value at H. influenzae NfsB [6] amounted to 242890 M⁻¹ s⁻¹.
By Km is commonly meant the substrate concentration at which the rate is half of its maximum. With “H. influenzae NfsB (Haemophilus influenzae Rd KW20)”, in data set [7], the Km turned out to be 500 µM.
